Test results as given in PubChem BioAssay (NCI).
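The concentration for 50% growth inhibition is given as GI50. Definition used: TGI = concentration required for complete inhibition of growth.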

Legend:
Test in all cases: NCI anticancer screen, dose series, 384-well format
[1] = system: NCI-H460 NSCLC
[2] = system: HL-60(TB) leukemia
[3] = system: DU-145 prostate
[4] = system: HCT-15 colon
[5] = system: SK-MEL-2 melanoma
[6] = system: K-562 leukemia
[7] = system: NCI/ADR-RES ovarian
[8] = system: SF-539 CNS
[9] = system: MDA-MB-468 breast
[10] = system: OVCAR-3 ovarian
[11] = system: SN12C renal
[12] = system: RPMI-8226 leukemia
[13] = system: NCI-H226 lung
[14] = system: TK-10 renal
[15] = system: ACHN renal
[16] = system: SW-620 colon
[17] = system: NCI-H322M lung
[18] = system: T-47D breast
[19] = system: SF-268 CNS
[20] = system: CAKI-1 renal
[21] = system: MDA-MB-231 breast
[22] = system: U251 glioblastoma
[23] = system: NCI-H23 lung
[24] = system: RXF 393 renal
[25] = system: PC-3 prostate
[26] = system: UO-31 renal
[27] = system: SNB-19 CNS
[28] = system: HCT-116 colon
[29] = system: KM12 colon
[30] = system: CCRF-CEM leukemia
[31] = system: COLO 205 colon
[32] = system: SF-295 CNS
[33] = system: M14 melanoma
[34] = system: LOX IMVI melanoma
[35] = system: HOP-92 NSCLC
[36] = system: IGROV1 ovarian
[37] = system: SR leukemia
[38] = system: SK-MEL-28 melanoma
[39] = system: A549 NSCLC
[40] = system: A498 renal
[41] = system: HT29 colon
[42] = system: UACC-257 melanoma
[43] = system: MDA-MB-435 melanoma
[44] = system: OVCAR-8 ovarian
[45] = system: MOLT-4 leukemia
[46] = system: NCI-H522 lung
[47] = system: OVCAR-4 ovarian
[48] = system: SK-OV-3 ovarian
[49] = system: MALME-3M melanoma
[50] = system: OVCAR-5 ovarian
[51] = system: BT-549 breast
[52] = system: HCC-2998 colon
[53] = system: 786-0 renal
[54] = system: HOP-62 NSCLC
[55] = system: MCF7 breast
[56] = system: SK-MEL-5 melanoma
[57] = system: UACC-62 melanoma
[58] = system: SNB-75 CNS
[59] = system: EKVX NSCLC
[60] = system: HS 578T breast

For Cc1[nH]c(/C=C2\C(=O)Nc3ccc(S(=O)(=O)Cc4c(Cl)cccc4Cl)cc32)c(C)c1C(=O)N1CCC[C@@H]1CN1CCCC1, the GI50 [1] was 1340 nM, the TGI [1] was 2630 nM and the GI50 [2] was 2110 nM. It also gave a TGI [2] of 3540 nM, a GI50 [3] of 1850 nM and a TGI [3] of 3250 nM. It also gave a GI50 [4] of 1820 nM, a TGI [4] of 3230 nM and a GI50 [5] of 1240 nM. For the same molecule, the TGI [5] was 2490 nM, the GI50 [6] was 1720 nM and the TGI [6] was 3100 nM. The GI50 [7] was 1890 nM, the TGI [7] was 3360 nM and the GI50 [8] was 1740 nM. The TGI [8] was 3120 nM, the GI50 [9] was 1580 nM and the TGI [9] was 2930 nM. It also gave a GI50 [10] of 1890 nM, a TGI [10] of 3310 nM and a GI50 [11] of 1500 nM. The TGI [11] was 2830 nM, the GI50 [12] was 1250 nM and the TGI [12] was 2500 nM. For the same molecule, the GI50 [13] was 1930 nM, the TGI [13] was 3340 nM and the GI50 [14] was 1820 nM. It also gave a TGI [14] of 3220 nM, a GI50 [15] of 1600 nM and a TGI [15] of 2950 nM. The GI50 [16] was 1760 nM, the TGI [16] was 3160 nM and the GI50 [17] was 1750 nM. It also gave a TGI [17] of 3150 nM, a GI50 [18] of 1740 nM and a TGI [18] of 3120 nM. For the same molecule, the GI50 [19] was 1460 nM, the TGI [19] was 2780 nM and the GI50 [20] was 1530 nM. The TGI [20] was 2860 nM, the GI50 [21] was 1670 nM and the TGI [21] was 3040 nM. The GI50 [22] was 1810 nM, the TGI [22] was 3220 nM and the GI50 [23] was 1020 nM. It also gave a TGI [23] of 6680 nM, a GI50 [24] of 1650 nM and a TGI [24] of 3010 nM. The GI50 [25] was 1720 nM, the TGI [25] was 3110 nM and the GI50 [26] was 1690 nM. The TGI [26] was 3070 nM, the GI50 [27] was 1940 nM and the TGI [27] was 3360 nM. It also gave a GI50 [28] of 1560 nM, a TGI [28] of 2910 nM and a GI50 [29] of 445 nM. The TGI [29] was 1500 nM, the GI50 [30] was 681 nM and the TGI [30] was 1900 nM. For the same molecule, the GI50 [31] was 1720 nM, the TGI [31] was 3100 nM and the GI50 [32] was 1320 nM. The TGI [32] was 2590 nM, the GI50 [33] was 1740 nM and the TGI [33] was 3120 nM. For the same molecule, the GI50 [34] was 2020 nM, the TGI [34] was 3460 nM and the GI50 [35] was 1880 nM. It also gave a TGI [35] of 3290 nM, a GI50 [36] of 1710 nM and a TGI [36] of 3100 nM. The GI50 [37] was 1310 nM, the TGI [37] was 2590 nM and the GI50 [38] was 1750 nM. It also gave a TGI [38] of 3130 nM, a GI50 [39] of 1710 nM and a TGI [39] of 3100 nM. It also gave a GI50 [40] of 1630 nM, a TGI [40] of 2990 nM and a GI50 [41] of 1780 nM. It also gave a TGI [41] of 3180 nM, a GI50 [42] of 1420 nM and a TGI [42] of 2730 nM. It also gave a GI50 [43] of 1760 nM, a TGI [43] of 3150 nM and a GI50 [44] of 1680 nM. For the same molecule, the TGI [44] was 3060 nM, the GI50 [45] was 573 nM and the TGI [45] was 1730 nM. It also gave a GI50 [46] of 1980 nM, a TGI [46] of 3400 nM and a GI50 [47] of 1740 nM. The TGI [47] was 3130 nM, the GI50 [48] was 1340 nM and the TGI [48] was 2630 nM. For the same molecule, the GI50 [49] was 1720 nM, the TGI [49] was 3100 nM and the GI50 [50] was 1930 nM. The TGI [50] was 3370 nM, the GI50 [51] was 1560 nM and the TGI [51] was 2900 nM. It also gave a GI50 [52] of 1990 nM, a TGI [52] of 3420 nM and a GI50 [53] of 1440 nM. For the same molecule, the TGI [53] was 2750 nM, the GI50 [54] was 1850 nM and the TGI [54] was 3250 nM. The GI50 [55] was 1750 nM, the TGI [55] was 3130 nM and the GI50 [56] was 1190 nM. It also gave a TGI [56] of 2430 nM, a GI50 [57] of 1060 nM and a TGI [57] of 2250 nM.
Molecule CC(=O)Nc1cccc(-n2c(=O)n(C3CC3)c(=O)c3c(Nc4ccc(I)cc4F)n(C)c(=O)c(C)c32)c1 has a GI50 [58] of 115 nM, a TGI [58] of 5760 nM and a GI50 [1] of 3880 nM. For the same molecule, the TGI [1] was > 40900 nM, the GI50 [2] was < 10 nM and the TGI [2] was < 10 nM. It also gave a GI50 [3] of 1960 nM, a TGI [3] of 44400 nM and a GI50 [4] of 238 nM. For the same molecule, the TGI [4] was 14700 nM, the GI50 [5] was < 10 nM and the TGI [5] was < 10 nM. The GI50 [6] was 26.5 nM, the TGI [6] was 11800 nM and the GI50 [7] was 1320 nM. For the same molecule, the TGI [7] was 8350 nM, the GI50 [8] was 81.9 nM and the TGI [8] was 11000 nM. For the same molecule, the GI50 [9] was 5030 nM, the TGI [9] was 14200 nM and the GI50 [10] was 4650 nM. It also gave a TGI [10] of 21400 nM, a GI50 [11] of 537 nM and a TGI [11] of 46400 nM. For the same molecule, the GI50 [12] was 423 nM, the TGI [12] was 4840 nM and the GI50 [13] was < 43.2 nM. The TGI [13] was 8930 nM, the TGI [14] was > 45600 nM and the GI50 [15] was 576 nM. The TGI [15] was 20400 nM, the GI50 [16] was < 10 nM and the TGI [16] was > 36000 nM. For the same molecule, the GI50 [17] was < 23.7 nM, the TGI [17] was 3600 nM and the GI50 [18] was > 25100 nM. For the same molecule, the TGI [18] was > 100000 nM, the GI50 [19] was 7210 nM and the TGI [19] was > 56400 nM. For the same molecule, the GI50 [20] was < 26 nM, the TGI [20] was 12000 nM and the GI50 [21] was < 48.9 nM. It also gave a TGI [21] of 1990 nM, a GI50 [22] of 76 nM and a TGI [22] of 23200 nM. The GI50 [23] was < 10 nM, the TGI [23] was 137 nM and the TGI [24] was 1440 nM. The GI50 [25] was > 35700 nM, the TGI [25] was > 59500 nM and the GI50 [26] was 54.1 nM. For the same molecule, the TGI [26] was 11300 nM, the TGI [27] was > 62100 nM and the GI50 [28] was < 10 nM. The TGI [28] was 78.7 nM, the GI50 [29] was < 10 nM and the TGI [29] was 26100 nM. The GI50 [30] was 3320 nM, the TGI [30] was 12800 nM and the GI50 [31] was < 10 nM. The TGI [31] was < 10.6 nM, the GI50 [32] was 23100 nM and the TGI [32] was > 86200 nM. The GI50 [33] was < 10 nM, the TGI [33] was < 10 nM and the GI50 [34] was < 10 nM. For the same molecule, the TGI [34] was 44.3 nM, the GI50 [35] was < 17.2 nM and the TGI [35] was 123 nM. The GI50 [36] was < 10 nM, the TGI [36] was 5480 nM and the GI50 [37] was 1100 nM. For the same molecule, the TGI [37] was 5650 nM, the GI50 [38] was < 10 nM and the TGI [38] was < 10 nM. For the same molecule, the GI50 [39] was 10.3 nM, the TGI [39] was 4680 nM and the GI50 [59] was 309 nM. The TGI [59] was 23700 nM, the GI50 [60] was 1500 nM and the TGI [60] was 24900 nM. The GI50 [40] was 80 nM, the TGI [40] was 4520 nM and the GI50 [41] was < 10 nM. The TGI [41] was 15000 nM, the GI50 [42] was < 10 nM and the TGI [42] was < 10 nM. The GI50 [43] was < 10 nM, the TGI [43] was 16500 nM and the GI50 [44] was 2880 nM. For the same molecule, the TGI [44] was 36100 nM, the GI50 [45] was 3110 nM and the TGI [45] was 12300 nM. It also gave a GI50 [46] of 4330 nM, a TGI [46] of 37400 nM and a GI50 [47] of 4870 nM. For the same molecule, the TGI [47] was 26900 nM, the TGI [48] was > 41100 nM and the GI50 [49] was < 10 nM. The TGI [49] was < 10 nM, the GI50 [50] was < 10 nM and the TGI [50] was 25500 nM. The GI50 [51] was 846 nM, the TGI [51] was 18300 nM and the GI50 [52] was < 10 nM. For the same molecule, the TGI [52] was < 11.9 nM, the GI50 [53] was 1200 nM and the TGI [53] was 20100 nM. The GI50 [54] was < 11.3 nM, the TGI [54] was 21200 nM and the GI50 [55] was 7680 nM. For the same molecule, the TGI [55] was 23600 nM, the GI50 [56] was < 10 nM and the TGI [56] was < 10 nM. The GI50 [57] was < 10 nM.
